Data taken from ChEMBL document CHEMBL3046305, “Insecticidal and repellent action of allyl esters against Acyrthosiphon pisum (Hemiptera: Aphididae) and Tribolium castaneum (Coleoptera: Tenebrionidae)” (2013).
Values after ≈ are worked out from the molar mass of the structure shown. Active and inactive are the calls of the source. No cut-off for these calls is given here.

Tests used:
[1] = tested on: Acyrthosiphon pisum; test: Insecticidal activity against Acyrthosiphon pisum (pea aphid) treated artificial diet with compound assessed as mortality at 0.7 mg/ml after 1 day; type: functional; details: 24 h
[2] = tested on: Acyrthosiphon pisum; test: Insecticidal activity against Acyrthosiphon pisum (pea aphid) assessed as mortality treated topically at 30 ug/insect measured after 24 hr; type: functional
[3] = tested on: Acyrthosiphon pisum; test: Insecticidal activity against Acyrthosiphon pisum (pea aphid) treated artificial diet with compound assessed as mortality at 0.1 mg/ml after 1 day; type: functional, organism-based
[4] = tested on: Acyrthosiphon pisum; test: Insecticidal activity against Acyrthosiphon pisum (pea aphid) treated artificial diet with compound for 3 days assessed as mortality; type: functional; details: for LC50: Acyrthosiphon pisum, 72 h
[5] = tested on: Tribolium castaneum; test: Insecticidal activity against Tribolium castaneum (red flour beetle) Herbst assessed as mortality treated topically at 0.24 mg/insect measured per insect after 24 hr; type: functional
[6] = tested on: Acyrthosiphon pisum; test: Insecticidal activity against Acyrthosiphon pisum (pea aphid) treated artificial diet with compound assessed as mortality at 0.7 mg/ml after 3 days; type: functional; details: 72 h
[7] = tested on: Acyrthosiphon pisum; test: Repellent effect in Acyrthosiphon pisum (pea aphid) at 0.1 ug/cm'2; type: functional, organism-based
[8] = tested on: Tribolium castaneum; test: Insecticidal activity against Tribolium castaneum (red flour beetle) assessed as mortality treated topically measured per insect after 24 hr; type: functional
[9] = tested on: Acyrthosiphon pisum; test: Repellent effect in Acyrthosiphon pisum (pea aphid) at 10 ug/cm'2; type: functional
[10] = tested on: Tribolium castaneum; test: Repellent effect in Tribolium castaneum (red flour beetle) at 10 ug/cm'2 measured after 4 hr; type: functional
[11] = tested on: Tribolium castaneum; test: Insecticidal activity against Tribolium castaneum (red flour beetle) assessed as mortality at 0.25 mg/insect; type: functional
[12] = tested on: Tribolium castaneum; test: Repellent effect in Tribolium castaneum (red flour beetle) at 0.1 ug/cm'2 measured after 8 hr; type: functional, organism-based
[13] = tested on: Tribolium castaneum; test: Repellent effect in Tribolium castaneum (red flour beetle) at 10 ug/cm'2 measured after 24 hr; type: functional

Structure (SMILES)	mortality at 700 µg/mL [1] [%]	mortality [2]	mortality [3]	LC90 [4] [µg/mL]	LC50 [4] [µg/mL]	mortality [5] [%]	mortality at 700 µg/mL [6] [%]	Activity [7]	LC50 [8] [mg]	LC90 [8] [mg]	Repellency [9] [%]	Repellency [10] [%]	LT50 [11] [h]	Activity [12]	Activity [10]	Repellency [13] [%]
C=CCOC(=O)c1ccco1 [ALLYL 2-FUROATE]	52	inactive	inactive	2900 (≈ 19100 µM)	210 (≈ 1380 µM)	45	68	inactive	0.2	0.46	–	–	–	–	–	–
C=CCOC(=O)CCCCCCC [ALLYL OCTANOATE]	–	inactive	inactive	–	–	45	–	inactive	0.1	0.16	–	–	–	–	–	–
C=CCOC(=O)/C=C/c1ccccc1 [ALLYL CINNAMATE]	86	75%	inactive	180 (≈ 956 µM)	30 (≈ 159 µM)	45	100	–	0.2	0.28	34	80	<2	Active	–	–
C=CCOC(=O)CCCCC [ALLYL HEXANOATE]	–	inactive	inactive	–	–	45	–	inactive	–	0.3	–	–	–	–	inactive	–
C=CCOC(=O)CCCCCC [ALLYL HEPTANOATE]	53	inactive	inactive	1160 (≈ 6810 µM)	–	45	72	inactive	–	0.32	–	–	<2	–	–	–
CCN(CC)C(=O)c1cccc(C)c1 [DIETHYLTOLUAMIDE]	–	–	–	–	–	–	–	–	–	–	50	60	–	–	–	84
